Assay results as given in PMC4144908, “Structural Insights of the ssDNA Binding Site in the Multifunctional Endonuclease AtBFN2 from Arabidopsis thaliana” (PLoS ONE, 2014).

Assays:
[1] = target: T1, AtBFN2 (Arabidopsis thaliana, UniProt Q9C9G4); parameters: gene ENDO2; settings: active site, tri-zinc cluster; crystals grown with 0.2 M Na2HPO4, 0.1 M Hepes pH 7.5
T1 sequence (Q9C9G4 28-290): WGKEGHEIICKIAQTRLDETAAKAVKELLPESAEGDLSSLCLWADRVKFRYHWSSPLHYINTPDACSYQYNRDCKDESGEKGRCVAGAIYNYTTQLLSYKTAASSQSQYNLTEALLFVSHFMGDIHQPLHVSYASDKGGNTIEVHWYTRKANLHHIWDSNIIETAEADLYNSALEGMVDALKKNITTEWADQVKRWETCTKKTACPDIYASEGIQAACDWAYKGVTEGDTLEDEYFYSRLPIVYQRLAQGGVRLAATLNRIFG

[2] = target: T1, AtBFN2; experiment: acid-soluble ssDNA release, A260; type: biochemical; parameters: gene ENDO2; ENDO2 cDNA with C-terminal 6xHis tag, overexpressed in transgenic Arabidopsis seedlings; three Zn ions; settings: heat-denatured ssDNA substrate; 100 mM Tris pH 7, 37 °C, 10 min; 1 mM Na3VO4

Row | Compound | X-ray crystal structure, 2.0 Å [1] | % inhibition at 1 mM [2] [%]
1 | O=P(O)(O)O [phosphate] | have a phosphate anion displacing all coordinating waters, except Wat3 (Fig. 2D) | 
2 | [O]=[V]([OH])([OH])[OH] [vanadate] |  | 80
